Data published in patent publication US20140107109A1, “AMINO-DIHYDROTHIAZINE AND AMINO-DIOXIDO DIHYDROTHIAZINE COMPOUNDS AS BETA-SECRETASE ANTAGONISTS AND METHODS OF USE” (Amgen Inc., priority 2012, published 2014).
Read-outs that look alike come from different tables or passages of the source.

Legend:
[1] = system: Aβ40 in conditioned medium of cells stably expressing Amyloid Precursor Protein (APP); test: In vitro BACE cell-based assay (HEK cell assay), Aβ40 sandwich ELISA
In short: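 APP-stably expressing cells (40K/well, grown 24 h in DMEM/10% FBS) were treated 24 h with compounds in 10-point dose response starting at 100 μM or 10 μM, 0.1% DMSO final. Secreted Aβ40 was measured by sandwich ELISA (pAb40 capture, biotinylated 6E10 detection, europium time-resolved fluorescence); IC50 from percent inhibition.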

[2] = system: Abeta 40 in cerebrospinal fluid (CSF) and brain; test: In vivo inhibition of beta-secretase: Abeta 40 reduction in CSF and brain of the rat; details: 10 mpk (unless otherwise noted), after 4 hrs
Text: In Vivo Inhibition of Beta-Secretase
Several animal models, including mouse, rat, dog, and monkey, may be used to screen for inhibition of beta-secretase activity in vivo following administration of a test compound sample. Animals used in this invention can be wild type, transgenic, or gene knockout animals. […] One to twenty-four hours following the administration of compound, animals are sacrificed, and brains as well as cerebrospinal fluid (CSF) and plasma are removed for analysis of A-beta levels and drug or test compound concentrations (Dovey et al., 2001, Journal of Neurochemistry, 76, 173-181) Beginning at time 0, animals are administered by oral gavage, or other means of delivery such as intravenous injection, an inhibitory test compound of up to 100 mg/kg in a standard, conventional formulation, such as 2% hydroxypropyl methylcellulose, 1% Tween80. A separate group of animals receive 2% hydroxypropyl methylcellulose, 1% Tween80 alone, containing no test compound, and serve as a vehicle-control group. […] CSF or brain supernatants are then analyzed for the presence of A-beta peptide by specific sandwich ELISA assays based on ECL (Electrochemiluminescence) technology. For example, rat Abeta40 is measured using biotinylated-4G8 (Signet) as a capture antibody and Fab40 (an in-house antibody specific to the C-terminal of Abeta40) as a detection antibody.

Cathepsin D (Cat D) = target: T1, Cathepsin D (Cat D) (Homo sapiens, UniProt P07339); test: In vitro enzymatic Cathepsin D (Cat D) FRET assay; type: biochemical; details: read-out: CatD IC50
T1 construct: Recombinant Cat D was expressed in CHO cells; made in house; host or cells: CHO cells
In short: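 Recombinant Cat D expressed in CHO cells, used at 9 nM and pre-incubated one hour with serially diluted inhibitor in DMSO. Peptide substrate carries a fluorophore and quencher flanking the cleavage site; reaction stopped with Tris buffer raising pH to neutrality, then fluorescence read.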

Aβ in lumbar CSF = details: Ph I clinical trial; cited from earlier work
[3] = system: pigment epithelium of the rat's eye; details: higher compound dose given for three months; cited from earlier work
[4] = people brought in after termination of the Ph I dosing trial; cited from earlier work
[5] = target: Beta Secretase enzyme (BACE1) (Homo sapiens, UniProt P56817); test: In vitro enzymatic BACE FRET assay; type: biochemical; details: read-out: BACE1 FRET assay IC50
In short: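 BACE1 cleavage of a 50 nM fluorophore/quencher peptide FRET substrate ran for one hour in 0.05 M acetate pH 4.2, 10% DMSO, 100 uM genapol. Tris buffer raised pH to neutrality to stop the reaction before fluorescence was read (excitation 488 nm, […]).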

T1 sequence (P07339 65-412, species assumed): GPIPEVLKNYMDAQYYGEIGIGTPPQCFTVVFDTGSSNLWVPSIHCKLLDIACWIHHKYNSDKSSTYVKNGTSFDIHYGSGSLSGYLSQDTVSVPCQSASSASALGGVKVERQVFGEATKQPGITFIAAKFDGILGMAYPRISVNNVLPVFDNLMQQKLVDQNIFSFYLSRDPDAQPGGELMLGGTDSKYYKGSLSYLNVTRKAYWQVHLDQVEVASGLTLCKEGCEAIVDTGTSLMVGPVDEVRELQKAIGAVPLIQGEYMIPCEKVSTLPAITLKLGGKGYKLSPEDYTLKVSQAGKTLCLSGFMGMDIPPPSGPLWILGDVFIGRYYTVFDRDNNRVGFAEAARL
Beta Secretase enzyme (BACE1), sequence (P56817 46-501): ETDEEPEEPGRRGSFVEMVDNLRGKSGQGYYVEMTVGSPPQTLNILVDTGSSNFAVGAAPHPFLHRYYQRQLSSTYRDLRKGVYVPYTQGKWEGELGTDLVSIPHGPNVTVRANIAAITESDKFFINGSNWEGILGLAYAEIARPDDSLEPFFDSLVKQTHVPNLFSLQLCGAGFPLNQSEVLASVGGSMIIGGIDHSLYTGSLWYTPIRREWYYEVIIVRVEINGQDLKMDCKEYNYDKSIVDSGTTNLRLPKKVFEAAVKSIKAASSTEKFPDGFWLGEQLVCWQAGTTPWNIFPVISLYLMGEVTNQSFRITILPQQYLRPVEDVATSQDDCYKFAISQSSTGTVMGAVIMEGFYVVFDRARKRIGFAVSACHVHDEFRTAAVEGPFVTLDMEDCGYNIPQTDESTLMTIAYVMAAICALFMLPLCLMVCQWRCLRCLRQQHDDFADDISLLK

Question: For `COc1cnc(C(=O)Nc2ccc(F)c([C@]34COC[C@H]3S(=O)(=O)C(C)(C)C(N)=N4)c2)c(C)c1` [Example 430, N-(3-((4aS,7aS)-3-amino-2,2-dimethyl-1,1-dioxido-7,7a-dihydro-2H-furo[3,4-b][1,4]thiazin-4a(5H)-yl)-4-fluorophenyl)-5-methoxy-3-methyl-2-pyridinecarboxamide], which IC50 ([1]; Homo sapiens, HEK293, average IC50, cell assay) is on record?
Answer: 11.7 nM

Question: And the “% reduction of rat CSF levels at 10pmk” value ([2]; rat CSF)?
Answer: 31%

Question: What about the “% reduction of rat brain levels at 10mpk” value ([2]; rat brain) of the same compound?
Answer: 1%

Question: What about the IC50 (Cathepsin D (Cat D)) of the same compound?
Answer: 144000 nM

Question: With `C[C@@]1(c2cc(-c3cncnc3)c(F)cc2F)CCSC(N)=N1` [LY2811376, (S)-4-(2,4-difluoro-5-pyrimidin-5-yl-phenyl)-4-methyl-5,6-dihydro-4H-[1,3]thiazin-2-ylamine] as the compound, how does the “safety and tolerability in healthy volunteers” value (Aβ in lumbar CSF) read?
Answer: safe and well tolerated

Question: With `C[C@@]1(c2cc(-c3cncnc3)c(F)cc2F)CCSC(N)=N1` [LY 2811376] as the compound, how does the rat toxicology finding [3] read?
Answer: damaged the pigment epithelium of the rat's eye

Question: And the “eye assessments of Ph I subjects” value [4]?
Answer: did not show any abnormalities

Question: With “N-(3-((7R)-9-amino-7-(fluoromethyl)-5,5-dioxido-5-thia-8-azaspiro[3.5]non-8-en-7-yl)-4-fluorophenyl)-5-(difluoromethoxy)-3-methyl-2-pyridinecarboxamide, N-(3-((7S)-9-amino-7-(fluoromethyl)-5,5-dioxido-5-thia-8-azaspiro[3.5]non-8-en-7-yl)-4-fluorophenyl)-5-(difluoromethoxy)-3-methyl-2-pyridinecarboxamide [Example 410]” as the compound, how does the IC50 [1] read?
Answer: 11.9 nM

Question: And the IC50 (Cathepsin D (Cat D))?
Answer: 170000 nM

Question: What about the IC50 [5] of the same compound?
Answer: 2.3 nM
